Results: PubChem BioAssay (NCI)
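Step 1: Grow cells in 96-well plates. Step 2: Expose to compound for 48 hours at 5 concentrations. Step 3: Interpolate endpoints linearly; if unreached, use highest concentration. GI50 = concentration required for 50% inhibition of growth. TGI is the concentration that stops growth completely.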

Columns and labels:
Test in all cases: inhibition of tumour cell growth, NCI panel, 48 h
[1] = tested on: HT29 colon
[2] = tested on: MOLT-4 leukemia
[3] = tested on: SW-620 colon
[4] = tested on: HCT-116 colon
[5] = tested on: A549 NSCLC
[6] = tested on: DU-145 prostate
[7] = tested on: M14 melanoma
[8] = tested on: RXF 393 renal
[9] = tested on: NCI/ADR-RES ovarian
[10] = tested on: EKVX NSCLC
[11] = tested on: UACC-62 melanoma
[12] = tested on: SF-295 CNS
[13] = tested on: HCC-2998 colon
[14] = tested on: ACHN renal
[15] = tested on: SK-MEL-5 melanoma
[16] = tested on: 786-0 renal
[17] = tested on: NCI-H522 lung
[18] = tested on: HOP-62 NSCLC
[19] = tested on: SK-MEL-28 melanoma
[20] = tested on: LOX IMVI melanoma
[21] = tested on: SK-OV-3 ovarian
[22] = tested on: K-562 leukemia
[23] = tested on: CAKI-1 renal
[24] = tested on: KM12 colon
[25] = tested on: UO-31 renal
[26] = tested on: OVCAR-3 ovarian
[27] = tested on: SNB-19 CNS
[28] = tested on: HS 578T breast
[29] = tested on: PC-3 prostate
[30] = tested on: U251 CNS
[31] = tested on: HL-60(TB) leukemia
[32] = tested on: IGROV1 ovarian
[33] = tested on: COLO 205 colon
[34] = tested on: SN12C renal
[35] = tested on: SR leukemia
[36] = tested on: UACC-257 melanoma
[37] = tested on: MDA-MB-435
[38] = tested on: SF-539 CNS
[39] = tested on: SK-MEL-2 melanoma
[40] = tested on: HOP-92 NSCLC
[41] = tested on: OVCAR-5 ovarian
[42] = tested on: SF-268 CNS
[43] = tested on: TK-10 renal
[44] = tested on: BT-549 breast
[45] = tested on: OVCAR-4 ovarian
[46] = tested on: HCT-15 colon
[47] = tested on: NCI-H226 lung
[48] = tested on: MCF7 breast
[49] = tested on: OVCAR-8 ovarian
[50] = tested on: A498 renal
[51] = tested on: MDA-MB-231 breast
[52] = tested on: MALME-3M melanoma
[53] = tested on: RPMI-8226 leukemia
[54] = tested on: T-47D breast
[55] = tested on: SNB-75 CNS
[56] = tested on: NCI-H23 lung
[57] = tested on: NCI-H460 lung

Work on `CC(=O)/C=C/C1=C(c2cc3ccccc3s2)c2ccccc2CC1` yielded a GI50 [1] of 21 µM, a TGI [1] of over 100 µM and a GI50 [2] of 13.6 µM. It also gave a TGI [2] of over 100 µM, a GI50 [3] of 32.6 µM and a TGI [3] of over 100 µM. For the same molecule, the GI50 [4] was 20.7 µM, the TGI [4] was 65.1 µM and the GI50 [5] was 33 µM. It also gave a TGI [5] of over 100 µM, a GI50 [6] of 52.8 µM and a TGI [6] of over 100 µM. It also gave a GI50 [7] of 15.1 µM, a TGI [7] of 31.3 µM and a GI50 [8] of 24.9 µM. It also gave a TGI [8] of 57.2 µM, a GI50 [9] of 30.9 µM and a TGI [9] of over 100 µM. For the same molecule, the GI50 [10] was 39.5 µM, the TGI [10] was over 100 µM and the GI50 [11] was 16.7 µM. For the same molecule, the TGI [11] was 34.2 µM, the GI50 [12] was 37 µM and the TGI [12] was over 100 µM. The GI50 [13] was 22.7 µM, the TGI [13] was 50.2 µM and the GI50 [14] was 19.4 µM. It also gave a TGI [14] of 45.5 µM, a GI50 [15] of 16.3 µM and a TGI [15] of 35.3 µM. For the same molecule, the GI50 [16] was 33.2 µM, the TGI [16] was over 100 µM and the GI50 [17] was 26 µM. It also gave a TGI [17] of 72.2 µM, a GI50 [18] of 36.5 µM and a TGI [18] of over 100 µM. For the same molecule, the GI50 [19] was 20.9 µM, the TGI [19] was 54.1 µM and the GI50 [20] was 20.3 µM. It also gave a TGI [20] of 67.3 µM, a GI50 [21] of 67.9 µM and a TGI [21] of over 100 µM. For the same molecule, the GI50 [22] was 15.2 µM, the TGI [22] was over 100 µM and the GI50 [23] was 51.1 µM. For the same molecule, the TGI [23] was over 100 µM, the GI50 [24] was 18.5 µM and the TGI [24] was 42.2 µM. For the same molecule, the GI50 [25] was 21 µM, the TGI [25] was 59.4 µM and the GI50 [26] was 19.4 µM. It also gave a TGI [26] of 45 µM, a GI50 [27] of 50.7 µM and a TGI [27] of over 100 µM. For the same molecule, the GI50 [28] was 52.5 µM, the TGI [28] was over 100 µM and the GI50 [29] was 18.4 µM. It also gave a TGI [29] of over 100 µM, a GI50 [30] of 39.6 µM and a TGI [30] of over 100 µM. For the same molecule, the GI50 [31] was 16.4 µM, the TGI [31] was 98.2 µM and the GI50 [32] was 27.4 µM. For the same molecule, the TGI [32] was over 100 µM, the GI50 [33] was 29.9 µM and the TGI [33] was over 100 µM. It also gave a GI50 [34] of 36.5 µM, a TGI [34] of over 100 µM and a GI50 [35] of 8.59 µM. The TGI [35] was over 100 µM, the GI50 [36] was 24.4 µM and the TGI [36] was 59.7 µM. It also gave a GI50 [37] of 23 µM, a TGI [37] of 52.5 µM and a GI50 [38] of 27.2 µM. It also gave a TGI [38] of 64.7 µM, a GI50 [39] of 20 µM and a TGI [39] of 42.2 µM. For the same molecule, the GI50 [40] was 14.8 µM, the TGI [40] was 62.6 µM and the GI50 [41] was 27 µM. For the same molecule, the TGI [41] was 67.9 µM, the GI50 [42] was 27.1 µM and the TGI [42] was over 100 µM. For the same molecule, the GI50 [43] was 61.1 µM, the TGI [43] was over 100 µM and the GI50 [44] was 33.6 µM. For the same molecule, the TGI [44] was over 100 µM, the GI50 [45] was 25.9 µM and the TGI [45] was over 100 µM. For the same molecule, the GI50 [46] was 21.8 µM, the TGI [46] was 67.3 µM and the GI50 [47] was 19.8 µM. It also gave a TGI [47] of 40.8 µM, a GI50 [48] of 5.27 µM and a TGI [48] of over 100 µM. The GI50 [49] was 39.4 µM, the TGI [49] was over 100 µM and the GI50 [50] was 28.9 µM. It also gave a TGI [50] of 58.1 µM, a GI50 [51] of 26.2 µM and a TGI [51] of 88.2 µM. The GI50 [52] was 26.6 µM, the TGI [52] was 58.4 µM and the GI50 [53] was 3.86 µM. The TGI [53] was 24.4 µM, the GI50 [54] was 8.58 µM and the TGI [54] was over 100 µM. The GI50 [55] was 29.8 µM and the TGI [55] was over 100 µM.

With `COc1ccc2c(c1)C/C(=C\c1ccc(O)c(OC)c1)C2=O` the TGI [1] was over 100 µM, the TGI [2] was over 100 µM and the TGI [3] was over 100 µM. For the same molecule, the TGI [5] was over 100 µM, the TGI [7] was over 100 µM and the TGI [9] was over 100 µM. The TGI [10] was over 100 µM, the TGI [11] was over 100 µM and the TGI [13] was over 100 µM. The TGI [14] was over 100 µM, the TGI [16] was over 100 µM and the TGI [56] was over 100 µM. For the same molecule, the TGI [19] was over 100 µM, the TGI [57] was over 100 µM and the TGI [20] was over 100 µM. It also gave a TGI [21] of over 100 µM, a TGI [22] of over 100 µM and a TGI [23] of over 100 µM. The TGI [25] was over 100 µM, the TGI [26] was over 100 µM and the TGI [27] was over 100 µM. It also gave a TGI [28] of over 100 µM, a TGI [29] of over 100 µM and a TGI [30] of over 100 µM. It also gave a TGI [31] of over 100 µM, a TGI [34] of over 100 µM and a TGI [35] of over 100 µM. For the same molecule, the TGI [38] was over 100 µM, the TGI [41] was over 100 µM and the TGI [42] was over 100 µM. For the same molecule, the TGI [43] was over 100 µM, the TGI [44] was over 100 µM and the TGI [45] was over 100 µM. It also gave a TGI [46] of over 100 µM, a TGI [47] of over 100 µM and a TGI [48] of over 100 µM. For the same molecule, the TGI [49] was over 100 µM, the TGI [50] was over 100 µM and the TGI [53] was over 100 µM. For the same molecule, the TGI [55] was over 100 µM.
